{"source": "patent US5972893A", "about": "“Method of treating hyperprolactinemia and prolactinomas” (Cedars-Sinai Medical Center, priority 1997, dated 1999)", "key": {"human SSTR-1": {"molecular_target": "human SSTR-1 (Homo sapiens, UniProt P30872)", "sequence (P30872 whole entry)": "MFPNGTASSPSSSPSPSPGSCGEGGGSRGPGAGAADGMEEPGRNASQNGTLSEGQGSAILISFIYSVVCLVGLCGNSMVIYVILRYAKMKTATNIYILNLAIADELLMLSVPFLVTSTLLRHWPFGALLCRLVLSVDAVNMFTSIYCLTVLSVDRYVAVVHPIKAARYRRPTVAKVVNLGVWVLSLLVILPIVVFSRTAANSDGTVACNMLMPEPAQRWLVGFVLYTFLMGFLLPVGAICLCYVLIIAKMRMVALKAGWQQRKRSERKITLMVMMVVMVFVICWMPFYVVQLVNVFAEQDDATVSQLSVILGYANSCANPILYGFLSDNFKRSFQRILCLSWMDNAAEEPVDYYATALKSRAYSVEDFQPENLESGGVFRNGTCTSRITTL", "assay": "Somatostatin receptor binding assay, hSSTR-1"}, "human SSTR-3": {"molecular_target": "human SSTR-3 (Homo sapiens, UniProt P32745)", "sequence (P32745 whole entry)": "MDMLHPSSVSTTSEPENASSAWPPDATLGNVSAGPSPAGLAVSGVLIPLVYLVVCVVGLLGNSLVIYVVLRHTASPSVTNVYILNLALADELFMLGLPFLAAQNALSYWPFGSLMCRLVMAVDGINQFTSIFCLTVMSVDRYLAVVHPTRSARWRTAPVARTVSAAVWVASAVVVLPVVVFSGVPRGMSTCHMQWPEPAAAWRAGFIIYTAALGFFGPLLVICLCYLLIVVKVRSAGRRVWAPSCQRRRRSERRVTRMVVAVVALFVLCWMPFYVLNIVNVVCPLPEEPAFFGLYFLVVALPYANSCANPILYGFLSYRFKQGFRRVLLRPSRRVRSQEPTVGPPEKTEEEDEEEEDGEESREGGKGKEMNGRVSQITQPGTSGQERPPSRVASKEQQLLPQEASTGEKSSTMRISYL", "assay": "Somatostatin receptor binding assay, hSSTR-3"}, "[1]": {"tested_on": "cells derived from prolactin-secreting pituitary adenomas", "assay": "Reduction of prolactin secretion from prolactinoma cell cultures", "type": "cell-based, human", "details": "for effect on prolactin release (in words): tumor 1 adenomatous cell cultures, 10-100 nM; for effect on prolactin release (in words) / suppression of prolactin secretion: 3 hours; for response of cells from the four large male tumors (in words): tumors 1, 2, 3 and 4 (macroprolactinomas of male patients); for suppression of prolactin release / effect on prolactin production (in words): large tumor 4 cell cultures; for suppression of prolactin secretion: tumor 1 cell cultures"}}, "note": "pKi: −log10 of the molar value. Positions of bridges follow the written chain, without caps; N, C: chain ends. Non-standard residues stand in square brackets, D forms with d. Residues, ends and D or L forms follow the SMILES beside them.", "data": [{"compound": "CC(C)[C@@H]1NC(=O)[C@H](CCCCN)NC(=O)[C@@H](Cc2c[nH]c3ccccc23)NC(=O)[C@H](Cc2ccc(O)cc2)NC(=O)[C@@H](NC(=O)[C@H](N)Cc2ccc3ccccc3c2)CSSC[C@@H](C(=O)N[C@H](C(N)=O)[C@@H](C)O)NC1=O", "note": "[Lanreotide]", "values": [{"measurement": "pKi", "setting": "human SSTR-1", "value": 5.62}, {"measurement": "pKi", "setting": "human SSTR-3", "value": 7.01}, {"measurement": "effect on prolactin release (in words)", "setting": "[1]", "value": "did not affect prolactin release"}, {"measurement": "response of cells from the four large male tumors (in words)", "setting": "[1]", "value": "failed to respond"}]}, {"compound": "C[C@@H](O)[C@@H]1NC(=O)[C@H](CCCCN)NC(=O)[C@@H](Cc2c[nH]c3ccccc23)NC(=O)[C@H](Cc2ccccc2)NC(=O)[C@@H](NC(=O)[C@H](N)Cc2ccccc2)CSSC[C@@H](C(=O)N[C@H](CO)[C@@H](C)O)NC1=O", "note": "[Octreotide]", "values": [{"measurement": "response of cells from the four large male tumors (in words)", "setting": "[1]", "value": "failed to respond"}]}, {"compound": "C[C@@H](O)[C@H](NC(=O)[C@H](Cc1ccccc1)NC(=O)[C@@H](NC(=O)[C@H](CCCCN)NC(=O)[C@@H](Cc1c[nH]c2ccccc12)NC(=O)[C@H](Cc1ccccc1)NC(=O)[C@H](Cc1ccccc1)NC(=O)[C@H](N)Cc1ccccc1)[C@@H](C)O)C(N)=O", "note": "[BIM-23052, H-D-Phe-Phe-Phe-D-Trp-Lys-Thr-Phe-Thr-NH2] (H-[dF]FF[dW]KTFT-NH2)", "values": [{"measurement": "suppression of prolactin release", "setting": "[1]; p<0.05", "value": "more than 30%"}, {"measurement": "suppression of prolactin secretion", "setting": "[1]; 10 nM, p<0.05", "value": 33, "unit": "%"}, {"measurement": "response of cells from the four large male tumors (in words)", "setting": "[1]", "value": "suppression of prolactin secretion"}]}, {"compound": "C[C@@H](O)[C@@H]1NC(=O)[C@H](CCCCN)NC(=O)[C@@H](Cc2c[nH]c3ccccc23)NC(=O)[C@H](Cc2ccccc2)NC(=O)[C@H](Cc2ccccc2)NC(=O)[C@@H](N)CSSC[C@@H](C(N)=O)NC(=O)[C@H](Cc2ccccc2)NC1=O", "note": "[BIM-23268, H-Cys-Phe-Phe-D-Trp-Lys-Thr-Phe-Cys-NH2] (H-CFF[dW]KTFC-NH2; disulfide 1-8)", "values": [{"measurement": "suppression of prolactin", "setting": "[1]; large tumor 3 cell cultures, 10 nM and 100 nM, dose dependent, p<0.05", "value": "up to 29%"}, {"measurement": "suppression of prolactin release", "setting": "[1]; p<0.05", "value": "more than 30%"}, {"measurement": "suppression of prolactin secretion", "setting": "[1]; 10 nM, p<0.05", "value": 36, "unit": "%"}, {"measurement": "inhibition of prolactin release versus controls", "setting": "[1]; tumor 2 cell cultures, 10 nM, p<0.0005", "value": 38, "unit": "%"}, {"measurement": "response of cells from the four large male tumors (in words)", "setting": "[1]", "value": "suppression of prolactin secretion"}]}, {"compound": "CC[C@@H]1NC(=O)[C@H](CCCCN)NC(=O)[C@@H](Cc2c[nH]c3ccccc23)NC(=O)[C@H](Cc2ccc(O)cc2)NC(=O)[C@@H](NC(=O)[C@H](N)Cc2ccccc2)CSSC[C@@H](C(=O)N[C@H](C(N)=O)[C@@H](C)O)NC1=O", "note": "[BIM-23023]", "values": [{"measurement": "effect on prolactin release (in words)", "setting": "[1]", "value": "did not affect prolactin release"}]}, {"compound": "CC[C@@H]1NC(=O)[C@H](CCCCN)NC(=O)[C@@H](Cc2c[nH]c3ccccc23)NC(=O)[C@H](Cc2ccc(O)cc2)NC(=O)[C@@H](NC(=O)[C@@H](Cc2ccccc2)NS(=O)(=O)CCN2CCN(CCO)CC2)CSSC[C@@H](C(=O)N[C@H](C(N)=O)[C@@H](C)O)NC1=O", "note": "[BIM-23197]", "values": [{"measurement": "effect on prolactin production (in words)", "setting": "[1]", "value": "modestly stimulated prolactin production"}, {"measurement": "effect on prolactin release (in words)", "setting": "[1]", "value": "did not affect prolactin release"}, {"measurement": "response of cells from the four large male tumors (in words)", "setting": "[1]", "value": "failed to respond"}]}, {"compound": "CC[C@@H]1NC(=O)[C@H](CCCCN)NC(=O)[C@@H](Cc2c[nH]c3ccccc23)NC(=O)[C@H](Cc2ccc(O)cc2)NC(=O)[C@@H](NC(=O)[C@@H](Cc2ccccc2)NC(=O)CN2CCN(CCO)CC2)CSSC[C@@H](C(=O)N[C@H](C(N)=O)[C@@H](C)O)NC1=O", "note": "[BIM-23190]", "values": [{"measurement": "effect on prolactin production (in words)", "setting": "[1]", "value": "modestly stimulated prolactin production"}, {"measurement": "effect on prolactin release (in words)", "setting": "[1]", "value": "did not affect prolactin release"}, {"measurement": "response of cells from the four large male tumors (in words)", "setting": "[1]", "value": "failed to respond"}]}]}
